# Experimental data: patent US9956181B2, “Composition of nanoformulated lycopene and method of using the composition” (priority 2015, dated 2018)
# Tested on: genes involved in osteoblast activity, osteoclastogenesis, apoptosis and oxidative stress enzymes
# Test: OVX rat study: qRT-PCR of bone marrow and flushed femur
# Type: in vivo, Wistar rats
# Details: for decrease in concentration ratio of RANKL/OPG: P<0.05
# Procedure: FIG. 10 depicts […] analysis of genes involved in osteoblast activity, osteoclastogenesis, apoptosis and oxidative stress enzymes, in accordance with embodiments of the present invention. Bone marrow (A) was analyzed for relative mRNA abundance of the osteoclastogenesis gene factor of activated T-cells (Nfatc1), while the flushed femur (B-D) was used to examine genes involved in osteoblast activity and function: type 1 collagen (Colla1), osteocalcin (Ocn), alkaline phosphatase (Alp), osteoprotegerin (Opg), and receptor activator for NF-kappa B ligand (Rankl) in sham-operated (SHAM) and ovariectomized (Ovx) rats treated with placebo or lycopene (15, 30 and 45 mg/kg body weight per day) or alendronate (ALN) (2.0 ug/kg body weight per day) for 12 weeks. Bone marrow (F-H) was analyzed for relative mRNA abundance of oxidative enzyme: glutathione peroxidase (GPx), superoxide dismutase (SOD) and catalase (CAT) in sham-operated (SHAM) and ovariectomized (Ovx) rats treated with placebo or lycopene (15, 30 and 45 mg/kg body weight per day) or alendronate (ALN) (2.0 ug/kg body weight per day) for 12 weeks. Bone marrow (I) and the flushed femur (J-L) were analyzed for relative mRNA abundance of apoptotic genes. Genes of interest including, B-cell lymphoma homologous antagonist/killer (Bak1), caspase-3 (Casp3) and -9 (Casp 9) in sham-operated (SHAM) and ovariectomized (Ovx) rats treated with placebo or lycopene (15, 30 and 45 mg/kg body weight per day) or alendronate (ALN) (2.0 ug/kg body weight per day) for 12 weeks. Bars represent the mean±SD for 10 rats in each group.
# A total of 264 Wistar female rats, ˜6 months old, were supplied by the Animal House at King Fahd Medical Research Center (KFMRC), KAU. Rats were housed in individual cages and maintained at 22° C. with a 12-h light/dark cycle. During the study period, rats were given standard rodent chow diet ad libitum (commercial rat cubes containing approximately 18% protein, 3% fat, 77% carbohydrate, and 2% of an inorganic-salt mixture with a vitamin supplement by weight, supplied by Grain Silos and Flour Mills Organization, Jeddah, Saudi Arabia) and water until the onset of intervention. Prior to surgery, rats were anesthetized with ketamine [(10% ketamine hydrochloride (80 mg/kg body weight), Cayman Chemical, Michigan, USA] and xylazine [(2% xylazine hydrochloride, 10 mg/kg body weight), Sigma-Aldrich Co., St. Louis, USA]. A single longitudinal skin incision was made on the dorsal midline at the level of the kidneys and both ovaries were ligated and removed to produce an ovariectomy in all OVX group animals. A SHAM-operated group, acting as a negative control for the effect of ovariectomy on bone parameters, underwent bilateral laparotomy, during which the ovaries were exposed but remained intact. […] The lycopene-supplemented groups were given lycopene (15, 30 and 45 mg/kg body weight per day) dissolved in corn oil by daily intra-gastric administration for the experimental period of 12 weeks. The SHAM, OVX and ALN control groups were given the same volume of corn oil without lycopene treatment. […] A 12-week randomized placebo-controlled study in order to examine the protective effects of lycopene supplementation on bone mass and fragility in OVX rats was concluded. Prior to surgery, body weight and bone mineral density (BMD) were obtained for all animals. Rats were randomized using a computer-generated randomization code into one of six groups: (1) sham-operated (SHAM; n=44); (2) ovariectomized control (OVX; n=44); (3) OVX lycopene-supplemented (15 mg/kg body weight per day) (n=44); (4) OVX lycopene-supplemented (30 mg/kg body weight per day) (n=44); (5) OVX lycopene-supplemented (45 mg/kg body weight per day) (n=44) and (6) OVX alendronate-treated (ALN) [2.0 μg/kg body weight per day subcutaneously (sc)] (n=44). Alendronate is an anti-resorptive agent for the treatment of osteoporosis and was used as a positive therapy control. […]
# [1] = flushed femurs, lycopene treatment
smiles,measurement,setting,value
CC(C)=CCC/C(C)=C/C=C/C(C)=C/C=C/C(C)=C/C=C/C=C(C)/C=C/C=C(C)/C=C/C=C(\C)CCC=C(C)C [lycopene],"Alp, Colla1 and Ocn mRNA","OVX rats, lycopene treatment",enhancing
same,RANKL expression,all three doses of lycopene,down-regulated
same,Bak1 mRNA abundance compared to OVX control,"bone marrow, lycopene treatment",up-regulated
same,OVX-induced increase in Nfatc1 mRNA,"bone marrow, lycopene, 12 weeks, restored to SHAM level",suppressed
same,Casp 9 and Casp 3 gene expression,[1],did not change
same,Colla1 gene expression,[1],remained elevated
same,OPG expression,higher doses of lycopene,decreased
same,decrease in concentration ratio of RANKL/OPG,lycopene 30 mg/kg body weight per day,18.9%
same,decrease in concentration ratio of RANKL/OPG,lycopene 45 mg/kg body weight per day,38.3%
same,"GPX-1, CAT and SOD relative expression","lycopene treatment, to a level higher than SHAM",increased
